Assay results from US20170281578A1, “METHODS FOR TREATING METABOLIC DISTURBANCES” (THE BOARD OF REGENTS OF THE UNIVERSITY OF TEXAS SYSTEM, priority 2016, published 2017).

How the values were obtained:
[1] = test system: serum FGF23; experiment: Crossover randomized trial in pre- or Stage I hypertension: serum FGF23; type: in vivo, human; conditions: 30 patients; after 4 weeks of treatment; 20 meq K twice daily; p=0.05
Protocol: FIG. 4 illustrates effect of KMgCit on serum FGF23.
In the inventors' study, 30 patients with pre- or Stage I hypertension participated in a crossover randomized trial, whereby they took KMgCit powder (20 meq K, 10 meq Mg and 37 meq citrate twice daily) or KCl powder (20 meq K and 20 meq chloride twice daily) for four weeks each. After 4 weeks of treatment, serum samples were analyzed fro FGF23.

[2] = test system: RAA-SNS, serum aldosterone, fasting glucose, HOMA-IR; conditions: cited from earlier work
[3] = Crossover trial in pre- or Stage I hypertension: serum and 24-hour urinary K and Mg; type: in vivo, human; conditions: 4-week phases, 20 meq K bid; vs placebo phase, p<0.01
Source text: In the inventors' published study (Vongpatanasin, 2016), 30 patients with pre- (6 subjects) or Stage I (24 subjects) hypertension underwent a crossover trial, whereby they took KMgCit powder (20 meq K, 10 meq Mg and 37 meq citrate twice daily), KCit powder (20 meq K and 20 meq citrate twice daily), KCl powder (20 meq K and 20 meq chloride twice daily), or placebo (microcrystalline cellulose) for four weeks each. Among hypertensive subjects, 17 of 24 received antihypertensive treatment before study participation. All treated subjects received single-drug regimen before participation in the study (6 were on β blockers, 11 on angiotensin receptor blockers, or angiotensin-converting enzyme inhibitors, or calcium channel blockers), which was continued at the same dose throughout the study. None of the subjects had low serum Mg<1.8 mg/dl or serum K<3.5 meq/l or were on diuretic therapy.
Serum K and 24-hour urinary K excretion were increased during KCl, KCit, and KMgCit phases compared with placebo phase (p <0.01 vs placebo). Serum Mg was increased during KMgCit phase compared with placebo and KCl phases (both p<0.01); 24-hour urinary Mg excretion was increased during KMgCit phase compared with placebo and KCit (both p<0.01). 24-hour urinary Mg excretion was higher during KMgCit compared with KCl (p=0.017).

[4] = test system: serum triglyceride; experiment: Serum triglyceride in healthy adults on HCTZ with KMgCit or KCl; type: in vivo, human; conditions: from 1 month to 5 months of treatment; with HCTZ 50 mg/day; 40 meq K/day; p=0.09 between groups
Protocol: In the inventors' prior study (Odvina, & Pak, 2006), previously unpublished data on serum triglyceride were extracted. Eight healthy adult subjects took HCTZ 50 mg/day with KMgCit containing 40 meq K and 20 meq Mg/day for 6 months. Ten subjects received HCTZ 50 mg/day with KC1 40 meq K/day. Serum triglyceride declined by −32±41 mg/dL from 1 month to 5 months of treatment in the KMgCit group; It was underaltered from 1 month to 5 months of KCl treatment (0±31 mg/dL). The difference of the change in serum triglyceride between KMgCit and KCl groups was marginally significant (p=0.09). No baseline or 6 month data were available.

| SMILES | Serum FGF23 [1] [Rel U/ml] | CTD-induced activation of RAA-SNS ([2]; KCl supplementation) | Serum aldosterone ([2]; TZ-treated patients with hypertension, KCl supplementation) | CTD-induced fasting hyperglycemia and increased HOMA-IR ([2]; correction of hypokalemia by KCl) | 24-hour urinary K excretion [3] | Serum K [3] | Change in serum triglyceride [4] [mg/dL] |
| --- | --- | --- | --- | --- | --- | --- | --- |
| [Cl-].[K+] [KCl powder, potassium chloride] | 53.1±22.2 | unaffected | did not reduce | did not reverse | increased | increased | 0 ± 31 |
| O=C([O-])CC(O)(CC(=O)[O-])C(=O)[O-].[K+].[K+].[K+] [KCit powder, potassium citrate] | – | – | – | – | increased | increased | – |
